Measurements published in PubChem BioAssay (NCI).
Several values for one entry are separate records, joined by “and”; a condition that tells them apart may be missing. Identical values can stand only once.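 Growth conditions: 96-well plates. Treatment: test compound, 48 hours, 5 concentrations. Analysis: linear interpolation between bracketing concentrations; unreached endpoints set to highest concentration. GI50: concentration for 50% inhibition of growth. TGI: total growth inhibition.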

Legend:
Experiment in all cases: growth of human tumour cells (NCI), 48 h
SNB-19 CNS = tested on: SNB-19 CNS
HOP-92 NSCLC = tested on: HOP-92 NSCLC
HS 578T breast = tested on: HS 578T breast
SK-MEL-2 melanoma = tested on: SK-MEL-2 melanoma
K-562 leukemia = tested on: K-562 leukemia
786-0 renal = tested on: 786-0 renal
MDA-MB-435 = tested on: MDA-MB-435
OVCAR-4 ovarian = tested on: OVCAR-4 ovarian
SNB-75 CNS = tested on: SNB-75 CNS
UACC-257 melanoma = tested on: UACC-257 melanoma

Row | Structure (SMILES) | GI50 (SNB-19 CNS) | TGI (SNB-19 CNS) | GI50 (HOP-92 NSCLC) | TGI (HOP-92 NSCLC) | GI50 (HS 578T breast) | TGI (HS 578T breast) | GI50 (SK-MEL-2 melanoma) | TGI (SK-MEL-2 melanoma) | GI50 (K-562 leukemia) | TGI (K-562 leukemia) | GI50 (786-0 renal) | TGI (786-0 renal) | GI50 (MDA-MB-435) | TGI (MDA-MB-435) | GI50 (OVCAR-4 ovarian) | TGI (OVCAR-4 ovarian) | GI50 (SNB-75 CNS) | TGI (SNB-75 CNS) | GI50 (UACC-257 melanoma) | TGI (UACC-257 melanoma)
1 | COc1cc(Nc2nc3ccccc3cc2C(=O)Nc2ccc(F)c(F)c2)cc(OC)c1OC | 3.55 µM | > 100 µM | 1.98 µM | 5.75 µM | 2.8 µM | 13.6 µM | 2.1 µM | 5.98 µM | 3.31 µM | > 100 µM | 3.38 µM | > 100 µM | 2.19 µM | 5.17 µM | 2.8 µM | 8.56 µM | 2.27 µM | 9.35 µM | 2.6 µM | 6.28 µM
2 | O=C(/C=C/c1ccccc1)n1c(-c2ccc(Cl)cc2)nc2ccccc21 | 3.13 µM | 12.8 µM | 1.46 µM | 3.82 µM | 2.57 µM | 17.9 µM | 2.1 µM | 4.35 µM | 2.09 µM | 11.8 µM | 2.05 µM | 7.63 µM | 1.11 µM | 3.04 µM | 3.01 µM | 16.7 µM | 1.44 µM | 3.77 µM | 1.47 µM | 3.42 µM
3 | CNC(=O)Cc1nc(-c2cccc(NS(=O)(=O)c3c(F)cccc3F)c2F)c(-c2ccnc(Nc3ccccc3)n2)s1 | 14.3 µM | > 50 µM | 0.355 µM | > 14.4 µM | 0.482 µM | 43.7 µM | 0.419 µM | > 46 µM | 1.09 µM | > 50 µM | 10.1 µM | > 50 µM | 0.0445 µM | > 44 µM | > 33.8 µM | > 50 µM | 0.6 µM | 49.8 µM | 0.0142 µM | –
4 | Cc1cccc(C)c1NC(=O)Nc1ccc(S(N)(=O)=O)cc1 | – | > 100 µM | – | > 100 µM | – | > 100 µM | – | > 100 µM | – | > 100 µM | – | > 100 µM | – | > 100 µM | – | > 100 µM | – | > 100 µM | – | > 100 µM
5 | COc1ccc(-c2c3c(n(C4OC(COC(C)=O)C(OC(C)=O)C(OC(C)=O)C4OC(C)=O)c(=S)c2C#N)CC(C)(C)CC3=O)cc1 (stereo unspecified) | – | > 100 µM | 32.7 µM and > 100 µM | > 100 µM | – | > 100 µM | 26.3 µM and > 100 µM | 76.4 µM and > 100 µM | 18.2 µM and 47.5 µM | 39.9 µM and > 100 µM | 36.3 µM and > 100 µM | > 100 µM | 22.5 µM and 71.7 µM | 65.6 µM and > 100 µM | 45.4 µM and > 100 µM | > 100 µM | 25 µM and 67.8 µM | 97.9 µM and > 100 µM | 27.9 µM and > 100 µM | > 100 µM
6 | CCN(CC)CCCNC(=O)c1c2c(n3ccccc13)C(=O)c1ncccc1C2=O | 1.09 µM | 2.67 µM | 2.22 µM | 4.87 µM | 2.46 µM | 7.3 µM | 1.7 µM | 3.89 µM | 0.916 µM | > 100 µM | 0.904 µM | 7.9 µM | 0.224 µM | 0.506 µM | 0.164 µM | 0.903 µM | 1.5 µM | 2.93 µM | 0.491 µM | 1.71 µM
7 | COc1cccc(C2c3cc4c(cc3OC(N3CCCC3)C2C)OCO4)c1O (stereo unspecified) | – | > 100 µM | – | 41.5 µM | – | 18.5 µM | – | 30.4 µM | – | 57.8 µM | – | > 100 µM | – | 4.61 µM | – | > 94.2 µM | – | 8.29 µM | – | 40.3 µM
8 | C=C1CCC2C(C)(COC(=O)CC)C(OC(=O)CC)CCC2(C)C1C/C=C1/C(=O)OCC1OC(=O)CC (stereo unspecified) | 3.74 µM | 14.7 µM | 3.03 µM | 7.15 µM | 3.41 µM | 25.5 µM | 1.44 µM | 3.02 µM | 1.79 µM | 10.4 µM | 1.9 µM | 3.48 µM | 1.68 µM | 3.7 µM | 2.33 µM | 6.9 µM | 1.22 µM | 3.68 µM | 1.33 µM | 2.7 µM
9 | COc1ccccc1CNCCCN1C(=O)c2ccc3c4c(ccc(c24)C1=O)C(=O)N(CCCCNCCCN)C3=O | 1.31 µM | 2.72 µM | 2.01 µM | 7.04 µM | 2.27 µM | 8.2 µM | 1.09 µM | 3.09 µM | 1.9 µM | 4.87 µM | 2.25 µM | 9.35 µM | 0.574 µM | 1.16 µM | 0.458 µM | 1.24 µM | 7.13 µM | – | 0.698 µM | 2.08 µM
